Experiment in all cases: Enzymatic kinase assay (filter-binding / flashplate, 33P incorporation)
What all share (format): biochemical
Common to all, as to conditions: enzymatic kinase selectivity

Assay [1] addresses cKIT (Homo sapiens, UniProt P10721). As for the experimental part: (§1) Two methods were used to analyze phosphorylated peptides and proteins produced by the listed tyrosine and serine/threonine-specific protein kinases: either using a filter-binding assay (FB), or using a flashplate assay (FP). The activities of protein kinases were assayed in the presence or absence of inhibitors, by measuring the incorporation of ^33P from [γ^33P]ATP into appropriate substrates.
(§2) 96-well polypropylene microplates were used to assay the activity in the FB mode. To determine the inhibitory activity of compounds 10 μL of compound dilutions were pipetted into 96-well plates followed by the addition of 10 μL of assay mix and 10 μL of individual enzymes. With the addition of the enzymes the reactions were initiated and continued at RT. The reactions were stopped by the addition of 50 μL of a 125 mM EDTA solution pH 8.0. The final concentration of DMSO in the enzyme assays was 1%.
(§3) Flashplates are available as 96-well standard (STFPs) or as streptavidin-(SAFPs) or nickel coated FPs (NiFPs) from Perkin Elmer. STFPs are 96-well polystyrene microplates in which the interior of each well is permanently coated with a thin layer of polystyrene-based scintillant. Streptavidin flashplates (SAFP) are 96 or 384-well STFPs coated with streptavidin. SAFPs are suitable for a wide variety of assay applications which utilize biotinylated capture molecules. NiFP or nickel chelate flashplates are 96- or 384-well STFPs coated with nickel chelate. NiFPs are designed for in-plate, radiometric assays which utilize 4- or 6-histidine tagged proteins and peptides.
(§4) All kinase assays were performed in STFPs for 60 mins at RT and stopped with 50 μL of 0.5% H3PO4 except PKA which were carried out in polypropylene 96- and 384-well plates, respectively. PKA assays were stopped with 50 μL of 125 mM EDTA (pH 8.0) and 50 μL were transferred to either SAFPs or NIFPs to capture the biotinylated or histidine tagged peptides phosphorylated by PKA (SAFP) or by NiFPs. All wells were then washed three times with 200 μL of 0.5% H3PO4 and the plates were dried at room temperature. The plates were sealed and counted in a microplate scintillation counter (TopCount NXT, TopCount NXT HTS). The final concentration of DMSO in the enzyme assays was 1%.

Assay [2] has as its target InsR (Homo sapiens, UniProt P06213). As for the experimental part: as §1, §2, §3, §4
Assay [3] addresses cMET (Homo sapiens, UniProt P08581). As to the method:
as §1, §2, §3, §4

Assay [4] concerns the target GSK3beta (Homo sapiens, UniProt P49841). As to the method: as §1, §2, §3, §4
In assay [5] the target is cABLT315 (Homo sapiens, UniProt P00519, T315I). As to the method: as §1, §2, §3, §4
In assay [6] the target is JAK2 (Homo sapiens, UniProt O60674). As to the method: as §1, §2, §3, §4
Assay [7] has as its target PDGFRa (Homo sapiens, UniProt P16234). As for the experimental part: as §1, §2, §3, §4
In assay [8] the target is MK2 (Homo sapiens, UniProt P49137). As for the experimental part: as §1, §2, §3, §4
Assay [9] deals with IGF1R (Homo sapiens, UniProt P08069). As to the method:
as §1, §2, §3, §4

In assay [10] the target is COT1 (Homo sapiens, UniProt P41279). As to the method: as §1, §2, §3, §4
COT1, sequence (P41279 whole entry): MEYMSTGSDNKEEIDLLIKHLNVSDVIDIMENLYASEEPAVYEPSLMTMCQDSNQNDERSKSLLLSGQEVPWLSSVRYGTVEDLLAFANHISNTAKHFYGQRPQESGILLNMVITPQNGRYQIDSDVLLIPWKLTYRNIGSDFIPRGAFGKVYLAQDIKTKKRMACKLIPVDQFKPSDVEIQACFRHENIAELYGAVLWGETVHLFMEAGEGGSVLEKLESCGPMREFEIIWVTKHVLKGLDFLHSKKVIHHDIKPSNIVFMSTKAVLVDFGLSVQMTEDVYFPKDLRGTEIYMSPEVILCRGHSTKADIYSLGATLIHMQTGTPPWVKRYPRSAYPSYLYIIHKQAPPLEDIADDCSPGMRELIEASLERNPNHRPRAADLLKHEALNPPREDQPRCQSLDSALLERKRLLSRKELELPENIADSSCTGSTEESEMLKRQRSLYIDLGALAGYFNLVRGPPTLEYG
The target of assay [11] is FGFR-4 (Homo sapiens, UniProt P22455). As for the experimental part: as §1, §2, §3, §4
In assay [12] the target is T1, Aurora A (Homo sapiens, UniProt O14965).
T1 sequence (O14965 1-403): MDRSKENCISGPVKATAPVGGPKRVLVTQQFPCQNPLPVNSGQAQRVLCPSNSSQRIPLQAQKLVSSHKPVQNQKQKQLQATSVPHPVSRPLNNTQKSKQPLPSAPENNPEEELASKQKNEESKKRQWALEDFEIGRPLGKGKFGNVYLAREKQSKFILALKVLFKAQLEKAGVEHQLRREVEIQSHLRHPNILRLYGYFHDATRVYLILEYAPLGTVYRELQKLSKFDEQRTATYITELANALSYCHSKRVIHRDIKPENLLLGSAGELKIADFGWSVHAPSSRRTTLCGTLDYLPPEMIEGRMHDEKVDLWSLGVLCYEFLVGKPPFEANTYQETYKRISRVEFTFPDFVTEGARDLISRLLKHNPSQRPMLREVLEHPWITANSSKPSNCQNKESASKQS
As for the experimental part:
as §1, §2, §3, §4

For assay [13], the target named is RET (Homo sapiens, UniProt P07949). As for the experimental part: as §1, §2, §3, §4
Assay [14] addresses EphA4 (Homo sapiens, UniProt P54764). As to the method:
as §1, §2, §3, §4

The target in assay [15] is HER2 (Homo sapiens, UniProt P04626). As to the method: as §1, §2, §3, §4
Assay [16] addresses LCK (Homo sapiens, UniProt P06239). As to the method:
as §1, §2, §3, §4

The target in assay [17] is TYK2 (Homo sapiens, UniProt P29597). As to the method: as §1, §2, §3, §4
Assay [18] addresses P38a (Homo sapiens, UniProt Q16539). As to the method: as §1, §2, §3, §4

cMET, sequence (P08581 25-1390): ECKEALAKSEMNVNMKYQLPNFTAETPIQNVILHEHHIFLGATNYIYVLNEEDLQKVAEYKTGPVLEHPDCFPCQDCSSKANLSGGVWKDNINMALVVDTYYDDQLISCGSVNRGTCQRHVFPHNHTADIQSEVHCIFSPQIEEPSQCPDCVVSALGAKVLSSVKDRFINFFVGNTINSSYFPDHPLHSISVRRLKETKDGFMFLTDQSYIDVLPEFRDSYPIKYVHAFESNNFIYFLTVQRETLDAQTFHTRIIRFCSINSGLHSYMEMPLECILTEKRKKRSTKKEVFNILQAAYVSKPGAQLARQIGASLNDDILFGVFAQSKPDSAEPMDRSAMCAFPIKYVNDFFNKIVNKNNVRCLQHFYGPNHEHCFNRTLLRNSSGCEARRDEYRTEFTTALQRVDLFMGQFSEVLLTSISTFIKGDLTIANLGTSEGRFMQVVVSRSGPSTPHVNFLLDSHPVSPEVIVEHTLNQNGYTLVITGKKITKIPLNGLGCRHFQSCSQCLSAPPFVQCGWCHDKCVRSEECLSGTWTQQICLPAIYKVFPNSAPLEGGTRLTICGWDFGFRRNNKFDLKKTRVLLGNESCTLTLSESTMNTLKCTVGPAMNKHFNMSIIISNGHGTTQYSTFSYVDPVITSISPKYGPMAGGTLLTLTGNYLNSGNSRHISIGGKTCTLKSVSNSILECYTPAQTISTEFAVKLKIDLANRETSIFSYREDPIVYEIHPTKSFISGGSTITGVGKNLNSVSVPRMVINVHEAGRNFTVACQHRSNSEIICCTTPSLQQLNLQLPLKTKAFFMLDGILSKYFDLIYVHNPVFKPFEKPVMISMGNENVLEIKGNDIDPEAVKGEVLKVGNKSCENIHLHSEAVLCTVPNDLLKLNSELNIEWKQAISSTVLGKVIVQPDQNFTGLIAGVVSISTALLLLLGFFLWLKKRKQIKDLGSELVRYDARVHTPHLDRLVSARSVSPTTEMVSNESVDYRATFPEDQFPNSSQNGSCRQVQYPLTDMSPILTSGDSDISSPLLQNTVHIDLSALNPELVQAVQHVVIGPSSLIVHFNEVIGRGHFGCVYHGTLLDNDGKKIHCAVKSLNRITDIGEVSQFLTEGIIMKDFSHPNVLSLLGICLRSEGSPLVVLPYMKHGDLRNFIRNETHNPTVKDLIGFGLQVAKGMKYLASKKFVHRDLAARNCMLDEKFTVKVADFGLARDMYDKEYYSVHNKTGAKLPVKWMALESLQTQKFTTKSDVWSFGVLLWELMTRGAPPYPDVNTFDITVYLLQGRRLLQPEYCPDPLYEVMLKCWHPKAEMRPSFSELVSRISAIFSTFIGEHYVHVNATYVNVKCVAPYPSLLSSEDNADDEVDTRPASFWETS
InsR, sequence (P06213 28-1382, species assumed): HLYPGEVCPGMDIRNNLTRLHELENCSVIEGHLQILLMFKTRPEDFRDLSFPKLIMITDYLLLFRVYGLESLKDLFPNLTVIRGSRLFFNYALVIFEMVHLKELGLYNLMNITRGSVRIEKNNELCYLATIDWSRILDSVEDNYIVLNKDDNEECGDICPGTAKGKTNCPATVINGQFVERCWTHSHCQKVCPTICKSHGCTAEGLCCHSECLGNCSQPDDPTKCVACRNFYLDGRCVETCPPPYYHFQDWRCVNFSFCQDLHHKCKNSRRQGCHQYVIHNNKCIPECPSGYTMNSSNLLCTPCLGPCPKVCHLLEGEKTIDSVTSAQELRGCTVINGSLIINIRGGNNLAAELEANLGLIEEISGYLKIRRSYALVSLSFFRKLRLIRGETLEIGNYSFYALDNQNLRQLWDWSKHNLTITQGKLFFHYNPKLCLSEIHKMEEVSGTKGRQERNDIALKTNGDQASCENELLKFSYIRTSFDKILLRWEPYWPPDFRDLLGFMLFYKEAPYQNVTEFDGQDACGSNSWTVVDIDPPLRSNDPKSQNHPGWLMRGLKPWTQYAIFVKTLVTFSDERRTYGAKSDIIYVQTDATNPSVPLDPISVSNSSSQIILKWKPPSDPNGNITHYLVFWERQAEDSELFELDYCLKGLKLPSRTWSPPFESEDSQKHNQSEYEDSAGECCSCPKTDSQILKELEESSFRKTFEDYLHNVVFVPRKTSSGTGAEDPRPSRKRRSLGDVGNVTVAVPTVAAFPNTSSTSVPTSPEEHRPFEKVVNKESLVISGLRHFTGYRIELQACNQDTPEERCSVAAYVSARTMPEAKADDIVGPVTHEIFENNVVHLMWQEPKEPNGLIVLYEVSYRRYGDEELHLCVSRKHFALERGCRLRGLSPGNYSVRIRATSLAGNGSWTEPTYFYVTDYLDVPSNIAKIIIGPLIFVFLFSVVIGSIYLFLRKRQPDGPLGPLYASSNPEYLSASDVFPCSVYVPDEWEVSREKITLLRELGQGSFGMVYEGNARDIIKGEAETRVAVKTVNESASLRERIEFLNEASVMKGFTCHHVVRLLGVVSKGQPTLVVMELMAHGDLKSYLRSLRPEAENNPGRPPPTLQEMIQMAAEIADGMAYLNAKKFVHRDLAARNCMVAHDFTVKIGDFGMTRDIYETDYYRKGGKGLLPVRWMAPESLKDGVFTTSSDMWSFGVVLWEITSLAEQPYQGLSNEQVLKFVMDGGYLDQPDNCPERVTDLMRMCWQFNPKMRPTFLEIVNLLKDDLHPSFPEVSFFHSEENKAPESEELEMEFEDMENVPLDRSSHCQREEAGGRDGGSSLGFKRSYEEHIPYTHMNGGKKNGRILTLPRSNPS
PDGFRa, sequence (P16234 24-1089, species assumed): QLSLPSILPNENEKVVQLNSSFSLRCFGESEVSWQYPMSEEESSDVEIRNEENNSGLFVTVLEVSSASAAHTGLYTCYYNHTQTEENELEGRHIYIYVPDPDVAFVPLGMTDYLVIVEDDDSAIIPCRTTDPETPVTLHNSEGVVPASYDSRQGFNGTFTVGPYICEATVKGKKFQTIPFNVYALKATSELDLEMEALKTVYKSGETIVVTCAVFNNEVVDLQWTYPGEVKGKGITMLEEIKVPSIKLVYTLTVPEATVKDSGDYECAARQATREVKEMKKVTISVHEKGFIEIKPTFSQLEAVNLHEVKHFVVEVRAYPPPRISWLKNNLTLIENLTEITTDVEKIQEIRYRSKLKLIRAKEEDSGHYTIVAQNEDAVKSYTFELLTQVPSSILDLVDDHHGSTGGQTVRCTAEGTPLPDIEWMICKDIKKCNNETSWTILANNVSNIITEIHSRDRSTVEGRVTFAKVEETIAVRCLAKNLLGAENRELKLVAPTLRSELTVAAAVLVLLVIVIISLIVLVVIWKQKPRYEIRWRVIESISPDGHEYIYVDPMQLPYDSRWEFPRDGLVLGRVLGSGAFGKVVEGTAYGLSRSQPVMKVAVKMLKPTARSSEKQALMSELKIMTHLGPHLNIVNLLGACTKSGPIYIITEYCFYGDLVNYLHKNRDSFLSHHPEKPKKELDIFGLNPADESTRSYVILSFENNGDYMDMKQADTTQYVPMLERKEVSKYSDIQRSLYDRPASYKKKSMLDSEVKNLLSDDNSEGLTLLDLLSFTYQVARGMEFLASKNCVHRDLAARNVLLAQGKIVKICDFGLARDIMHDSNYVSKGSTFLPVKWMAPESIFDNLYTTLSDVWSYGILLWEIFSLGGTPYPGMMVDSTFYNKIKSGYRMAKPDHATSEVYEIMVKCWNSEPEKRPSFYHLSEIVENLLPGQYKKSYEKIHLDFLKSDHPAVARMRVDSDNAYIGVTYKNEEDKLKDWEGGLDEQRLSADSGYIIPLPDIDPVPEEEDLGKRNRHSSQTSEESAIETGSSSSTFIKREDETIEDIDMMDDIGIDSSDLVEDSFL
LCK, sequence (P06239 whole entry, species assumed): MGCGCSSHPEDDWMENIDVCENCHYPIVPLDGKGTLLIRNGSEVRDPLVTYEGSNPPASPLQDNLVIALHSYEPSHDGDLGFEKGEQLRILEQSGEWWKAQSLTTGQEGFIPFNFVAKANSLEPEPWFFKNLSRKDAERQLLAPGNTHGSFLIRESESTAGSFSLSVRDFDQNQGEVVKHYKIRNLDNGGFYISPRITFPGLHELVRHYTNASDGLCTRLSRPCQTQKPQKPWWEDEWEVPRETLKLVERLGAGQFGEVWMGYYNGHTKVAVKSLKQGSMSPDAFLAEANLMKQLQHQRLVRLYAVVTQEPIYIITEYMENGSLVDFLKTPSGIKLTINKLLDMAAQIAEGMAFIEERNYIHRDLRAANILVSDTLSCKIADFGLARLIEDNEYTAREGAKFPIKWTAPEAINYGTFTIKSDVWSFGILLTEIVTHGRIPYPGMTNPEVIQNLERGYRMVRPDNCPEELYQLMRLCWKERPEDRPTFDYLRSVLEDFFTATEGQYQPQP

The term IC50 denotes the point on the concentration scale where inhibition reaches its midpoint. Take `CC(=O)NC[C@H]1C[C@@H](n2cc(-c3ccc4c(c3)OC(c3ccccc3)CC4)c3c(N)ncnc32)C1` (mixture of isomers) [Example 16, (R,S)—N-{cis-3-[4-Amino-5-(2-phenyl-chroman-7-yl)-pyrrolo[2,3-d]pyrimidin-7-yl]-cyclobutylmethyl}-acetamide]: the IC50 in [1] is 3200 nM; in assay [2], 780 nM; in assay [3], greater than 10000 nM; in assay [4] it was greater than 10000 nM; in [5], 8000 nM; in [6], greater than 10000 nM. Besides, the IC50 was 1200 nM in assay [7]; greater than 10000 nM in assay [8]; 50 nM in [9]; greater than 10000 nM in assay [10]; greater than 10000 nM in [11]; 4300 nM in assay [12]. Moreover, the IC50 in assay [13] was 360 nM; in assay [14] it was greater than 10000 nM; in [15], greater than 10000 nM; in assay [16], 4460 nM; in assay [17], greater than 10000 nM; in [18], greater than 10000 nM.
For `Nc1ncnc2c1c(-c1ccc3c(c1)OC(c1ccccc1)C=C3)cn2[C@H]1C[C@@H](CN2CCS(=O)(=O)CC2)C1` (mixture of isomers) [Example 21, (R,S)-7-[cis-3-(1,1-Dioxo-1-thiomorpholin-4-ylmethyl)-cyclobutyl]-5-(2-phenyl-2H-chromen-7-yl)-7H-pyrrolo[2,3-d]pyrimidin-4-ylamine], the IC50 in assay [1] was 770 nM; in [2], 73 nM; in [3], greater than 10000 nM; in assay [4], greater than 10000 nM; in assay [5], greater than 10000 nM; in assay [6], greater than 10000 nM. Besides, the IC50 in assay [7] is 770 nM; in [8], greater than 10000 nM; in assay [9], 7.8 nM; in [10] it was greater than 10000 nM; in assay [11], greater than 10000 nM; in assay [12] it was 4000 nM. Besides, the IC50 in [13] was 25 nM; in [14], greater than 10000 nM; in [15], greater than 10000 nM; in assay [16] it was 3600 nM; in [17], greater than 10000 nM; in assay [18], greater than 10000 nM.
Take `CC(=O)N1CCN([C@H]2C[C@@H](n3cc(-c4ccc5c(c4)OC(c4ccccc4)CC5)c4c(N)ncnc43)C2)CC1` (relative stereo) [Example 38, 1-(4-{cis-3-[4-Amino-5-(2-phenyl-chroman-7-yl)-pyrrolo[2,3-d]pyrimidin-7-yl]-cyclobutyl}-piperazin-1-yl)-ethanone]: the IC50 was 6000 nM in [1]; 100 nM in assay [2]; greater than 10000 nM in assay [3]; greater than 10000 nM in [4]; greater than 10000 nM in [5]; greater than 10000 nM in [6]. Moreover, the IC50 in [7] is greater than 10000 nM; in assay [8], greater than 10000 nM; in assay [9], 17 nM; in [10] it was greater than 10000 nM; in [11] it was greater than 10000 nM; in [12], greater than 10000 nM. The IC50 in assay [13] was 410 nM; in assay [14], greater than 10000 nM; in assay [15] it was greater than 10000 nM; in assay [16] it was 3800 nM; in assay [17], greater than 10000 nM; in assay [18], greater than 10000 nM.
With `Nc1ncnc2c1c(-c1ccc3c(c1)OC(c1ccccc1)CC3)cn2C1CC(O)(CO)C1` (single isomer, unassigned) [Example 26], the IC50 was greater than 10000 nM in [1]; 1450 nM in assay [2]; greater than 10000 nM in assay [3]; greater than 10000 nM in [4]; 4350 nM in assay [5]; greater than 10000 nM in assay [6]. For the same compound, the IC50 in assay [7] is greater than 10000 nM; in assay [8], greater than 10000 nM; in [9], 58 nM; in [10], greater than 10000 nM; in assay [11] it was 8900 nM; in assay [12], 8800 nM. Besides, the IC50 in assay [13] is 760 nM; in assay [14], greater than 10000 nM; in assay [15], greater than 10000 nM; in [16], 6150 nM; in assay [17] it was greater than 10000 nM; in assay [18] it was greater than 10000 nM.
